Measured values: patent US8022043B2, “Ceramide derivatives as modulators of immunity and autoimmunity” (Albert Einstein College of Medicine of Yeshiva University, priority 2004, dated 2011)

How the values were obtained:
Format in all cases: cell-based
[1] = tested on: Bulk splenocytes from C57BL/6 mice; test: Splenocyte proliferation assay (3H-thymidine incorporation); settings: concentration giving 50% maximal response in proliferation of splenocyte cultures, 3H-thymidine incorporation
Description: The results were obtained using a splenocyte proliferation assay according to the following procedure: Bulk splenocytes from C57BL/6 mice were plated at 300,000 per well in 96-well flat-bottom tissue culture plates with the indicated ceramide-like glycolipid diluted in complete medium to the concentrations shown. After 48 h at 37° C., the plate wells were pulsed with 20 microliters of medium containing 50 microCi/ml ^3H-thymidine and incubated for a further 18 h. Cell proliferation was estimated by harvesting pulsed cells onto 96-well filtermats and scintillation counting on a 1450 Microbeta Trilux instrument (Wallac/Perkin Elmer, Boston, Mass.).

[2] = tested on: Bulk splenocytes from C57BL/6 mice; test: Cytokine response of splenocyte cultures (IL-4 and IFNγ ELISA); settings: 500 nM glycolipid, 48 hours; for Cytokine Response IFNγ / Cytokine Response IL-4: culture supernatant ELISA, ND = below the reliable level for detection
Description: The cytokine response reported in Table 1 and FIG. 5C was determined by the following procedure: Bulk splenocytes from C57BL/6 mice were plated at 300,000 per well in 96-well flat-bottom tissue culture plates with ceramide-like glycolipids diluted to a concentration of 500 nM in 200 microliters complete medium. After 48 h at 37° C., 150 microliters of supernatant was removed for cytokine measurements. Supernatant levels of IL-4, and IFNγ were measured by standard enzyme-linked immunosorbent assay (ELISA), using capture and biotinylated detection antibody pairs (clones 11B11/BVD6-24G2-biotin, and R4-6A2/XMG1.2-biotin, respectively, from BD Pharmingen, San Diego, Calif.). […] Standards for IL-4 and IFNγ were from Peprotech (Rocky Hill, N.J.).

NK T cells = test: NK T cell activation screens (Example, FIG. 5 and Table 1); settings: see Example
From the text: Using these methods, we produced more than 60 novel amino substituted analogues of KRN7000. These were screened in a functional assay that assessed the ability of the compounds to activate NK T cell hybridomas in the presence of various types of cells expressing CD1d, or in the presence of recombinant CD1d proteins bound to the tissue culture plate surface (FIG. 5).

iNKT cells = test: In vitro cytokine modulation, murine cell assay system; settings: for IFNγ induction: DB03-3: in some murine strains; for in vitro activity at modulating cytokines: murine cell assay system
From the text: The term iNKT cells, as used herein, mean the specific subset of CD1d-dependent T cells that expresses the invariant TCRα chain rearrangement consisting of Vα14-Jα18 in mice, and Vα24-Jα18 in humans. These cells are uniformly reactive to α-galactosylceramides presented by CD1d. These cells are also referred to as “Type 1” NKT cells, and the distinction between the different types of NKT cells and the nomenclature relating to this are summarized in the publication by Godfrey et al., Nat Rev Immunol. 2004 March; 4(3):231-7. Methods for determining cytokine production by iNKT cells in response to CD1d-presented glycolipids for determination of strong or weak agonist activity are described in Yu K O A, Im J S, Molano A, Dutronc Y, Illarionov P A, Forestier C, Fujiwara N, Arias I, Miyake S, Yamamura T, Chang Y-T, Besra G S, Porcelli S A, Modulation of CD1d-restricted NKT cell responses using N-acyl variants of α-galactosylceramides, Proc. Nat. Acad. Sci. (USA), 102:3383-8 (2005), see also Godfrey D I et al., Nat Rev Immunol. 2004 March; 4(3):231-7.

| SMILES | EC50 [1] [nM] | IL-4/IFNγ ratio divided by this ratio for DB01-1 (value in parentheses) [2] | ratio IL-4/IFNγ [2] | Cytokine Response IFNγ [2] [ng/mL] | Cytokine Response IL-4 [2] [ng/mL] | effectiveness of compound (NK T cells) | IL-4 induction (iNKT cells; in vitro) | IFNγ induction (iNKT cells; in vitro) | in vitro activity at modulating cytokines (iNKT cells) | IL-2 induction (iNKT cells; in vitro) |
| --- | --- | --- | --- | --- | --- | --- | --- | --- | --- | --- |
| CCCCCCCCCCCCCC[C@@H](O)[C@@H](O)[C@H](CO[C@H]1O[C@H](CO)[C@H](O)[C@H](O)[C@H]1O)NC(=O)Cc1c(F)cccc1Cl [YTCO3-49] | 57.1 | 1.1 | 0.028 | 4.57 | 0.13 |  |  |  |  |  |
| CCCCCCCCCCCCCC[C@@H](O)[C@@H](O)[C@H](CO[C@H]1O[C@H](CO)[C@H](O)[C@H](O)[C@H]1O)NC(=O)Cc1cc(OC)ccc1OC [YTCO3-54] | 17.2 | 0.4 | 0.011 | 10.39 | 0.11 |  |  |  |  |  |
| CCCCCCCCCCCCCC[C@@H](O)[C@@H](O)[C@H](CO[C@H]1O[C@H](CO)[C@H](O)[C@H](O)[C@H]1O)NC(=O)Cc1cccc(C)c1 [YTCO3-52] | 17 | 0.7 | 0.019 | 10.25 | 0.19 |  |  |  |  |  |
| CCCCCCCCCCCCCC[C@@H](O)[C@@H](O)[C@H](CO[C@H]1O[C@H](CO)[C@H](O)[C@H](O)[C@H]1O)NC(=O)c1ccc(OCCCCCCC)cc1 [YTCO3-53] | 38 | 1.2 | 0.030 | 0.67 | 0.02 |  |  |  |  |  |
| CCCCCCCCCCCCCC[C@@H](O)[C@@H](O)[C@H](CO[C@H]1O[C@H](CO)[C@H](O)[C@H](O)[C@H]1O)NC(=O)Cc1cccc2ccccc12 [YTCO3-56] | 11.4 | 0.7 | 0.019 | 11.79 | 0.22 | Particularly effective |  |  |  |  |
| CCCCCCCC/C=C\CCCCCCCCCC(=O)N[C@@H](COC1OC(CO)C(O)C(O)C1O)[C@H](O)[C@H](O)CCCCCCCCCCCCCC (some centres unmarked) [DB03-3] |  |  |  |  |  |  | good inducer of L-4 | strong inducer of IFNγ | show in vitro activity |  |
| CCCCCCCCCCCCCC[C@@H](O)[C@@H](O)[C@H](CO[C@H]1O[C@H](CO)[C@H](O)[C@H](O)[C@H]1O)N=[N+]=[N-] [DB03-7] |  |  |  |  |  |  |  |  | show in vitro activity |  |
| CCCCCCCCCCCCCC[C@@H](O)[C@@H](O)[C@H](CO[C@H]1O[C@H](CO)[C@H](O)[C@H](O)[C@H]1O)NC(=O)C(OC)c1ccccc1 (some centres unmarked) [YTCO3-48] | 86.9 | 0.6 | 0.016 | 12.56 | 0.20 |  |  |  |  |  |
| CCCCCCCCCCCCCCC(O)C(O)C(COC1OC(CO)C(O)C(O)C1O)NC(=O)C=Cc1ccccc1 (centres unmarked) [YTCO3-42] | > 2500 |  |  |  |  |  |  |  |  |  |
| CCCCCCCCCCCCCC[C@@H](O)[C@@H](O)[C@H](CO[C@H]1O[C@H](CO)[C@H](O)[C@H](O)[C@H]1O)NC(=O)C1(c2ccccc2)CCCC1 [YTCO3-46] | 4.8 | 1.0 | 0.026 | 8.52 | 0.22 | Particularly effective |  |  |  |  |
| CCCCCCCCCCCCCC[C@@H](O)[C@@H](O)[C@H](CO[C@H]1O[C@H](CO)[C@H](O)[C@H](O)[C@H]1O)NC(=O)Cc1ccc(Br)cc1 [YTCO3-47] | 7.5 | 0.4 | 0.011 | 19.63 | 0.21 | Particularly effective |  |  |  |  |
| CCCCCCCCCCCCCC[C@@H](O)[C@@H](O)[C@H](CO[C@H]1O[C@H](CO)[C@H](O)[C@H](O)[C@H]1O)NC(=O)C(C)(c1ccccc1)c1ccccc1 [YTCO3-58] | 51.8 | 0.9 | 0.024 | 8.64 | 0.21 |  |  |  |  |  |
| CCCCCCCCCCCCCCC(O)C(O)C(COC1OC(CO)C(O)C(O)C1O)NC(=O)CCCCCCCCCCC (centres unmarked) [YTC03-35] |  |  |  |  |  | Particularly effective |  |  |  |  |
| CCCCCCCCCCCCCCC(O)C(O)C(COC1OC(CO)C(O)C(O)C1O)NC(=O)Cc1ccc2c(c1)OCO2 (centres unmarked) [YTCO3-44] | 57.1 | 3.7 | 0.097 | 14.19 | 1.38 |  |  |  |  |  |
| CCCCCCCCCCCCCC[C@@H](O)[C@@H](O)[C@H](CO[C@H]1O[C@H](CO)[C@H](O)[C@H](O)[C@H]1O)NC(=O)C(c1ccccc1)C(C)CC (some centres unmarked) [YTCO3-60] | 10.9 | 0.8 | 0.022 | 8.18 | 0.18 | Particularly effective |  |  |  |  |
| CCCCCCCCCCCCCC[C@@H](O)[C@@H](O)[C@H](CO[C@H]1O[C@H](CO)[C@H](O)[C@H](O)[C@H]1O)NC(=O)C(c1ccccc1)C1CCCC1 (some centres unmarked) [YTCO3-50] | 5.4 | 0.3 | 0.007 | 9.47 | 0.07 | Particularly effective |  |  |  |  |
| CCCCC/C=C\C/C=C\CCCCCCCC(=O)N[C@@H](COC1OC(CO)C(O)C(O)C1O)[C@H](O)[C@H](O)CCCCCCCCCCCCCC (some centres unmarked) [DB03-10] |  |  |  |  |  |  | strong inducers of IL-4 | moderate inducers of IFNγ | show in vitro activity | weak inducers of IL-2 |
| CCCCCCCCCCCCCCC(O)C(O)C(COC1OC(CO)C(O)C(O)C1O)NC(=O)Cc1ccccc1OC (centres unmarked) [YTCO3-43] | 86.9 | 0.7 | 0.018 | 19.50 | 0.35 |  |  |  |  |  |
| CCCCCCCCCCCCCCC(O)C(O)C(COC1OC(CO)C(O)C(O)C1O)NC(=O)CCCCC (centres unmarked) [YTC03-31] |  |  |  |  |  | Particularly effective |  |  |  |  |
| CCCCCCCCCCCCCC[C@@H](O)[C@@H](O)[C@H](CO[C@H]1O[C@H](CO)[C@H](O)[C@H](O)[C@H]1O)NC(=O)Cc1ccc(C)cc1 [YTCO3-51] | 63.8 | 0.2 | 0.006 | 9.03 | 0.05 |  |  |  |  |  |
| CCCCCCCCCCCCCC[C@@H](O)[C@@H](O)[C@H](COC1OC(CO)C(O)C(O)C1O)NC(=O)Cc1ccc(OC)cc1 (some centres unmarked) [YTC03-33] |  |  |  |  |  | Particularly effective |  |  |  |  |
| CCCCCCCCCCCCCC[C@@H](O)[C@@H](O)[C@H](CO[C@H]1O[C@H](CO)[C@H](O)[C@H](O)[C@H]1O)NC(=O)Cc1ccc(OCC)cc1 [YTCO3-59] | 0.1 | 309.4 | 8.045 | 0.22 | 1.77 | Particularly effective |  |  |  |  |
| CCCCCCCCCCCCCCC(O)C(O)C(COC1OC(CO)C(O)C(O)C1O)NC(=O)Cc1ccccc1Cl (centres unmarked) [YTCO3-45] | 222 | 1.6 | 0.041 | 15.26 | 0.63 |  |  |  |  |  |
| CCCCCCCCCCCCCC[C@@H](O)[C@@H](O)[C@H](CO[C@H]1O[C@H](CO)[C@H](O)[C@H](O)[C@H]1O)NC(=O)[C@H](Cc1ccccc1)NC(=O)OC(C)(C)C [YTCO3-57] | 2190 |  |  |  |  |  |  |  |  |  |
| CCCCCCCCCCCCCC[C@@H](O)[C@@H](O)[C@H](CO[C@H]1O[C@H](CO)[C@H](O)[C@H](O)[C@H]1O)NC(=O)C(CC)c1ccccc1 (some centres unmarked) [YTCO3-61] | 72.4 | 0.9 | 0.023 | 7.50 | 0.17 |  |  |  |  |  |
